From ChEMBL document CHEMBL1201862, “PubChem BioAssay data set” (2004)
Active and inactive are the calls of the source.

Experiments:
[1] = TB: CFU replicating Measured in Microorganism System Using Imaging - 7108-05_Inhibitor_Dose_DryPowder_Activity_Set2.; format: functional
[2] = biological target: T1, Oxysterols receptor LXR-beta (Homo sapiens, UniProt P55055); experiment: LXR agonists, Gal4 luciferase reporter, dose response, counter-screen for ssDAF-12 agonist project, cell-based, luminescence, HEK293, S. stercoralis campaign (AID 720737); format: functional; conditions: read-out: IC50 (the source's name)
T1 sequence (P55055 whole entry): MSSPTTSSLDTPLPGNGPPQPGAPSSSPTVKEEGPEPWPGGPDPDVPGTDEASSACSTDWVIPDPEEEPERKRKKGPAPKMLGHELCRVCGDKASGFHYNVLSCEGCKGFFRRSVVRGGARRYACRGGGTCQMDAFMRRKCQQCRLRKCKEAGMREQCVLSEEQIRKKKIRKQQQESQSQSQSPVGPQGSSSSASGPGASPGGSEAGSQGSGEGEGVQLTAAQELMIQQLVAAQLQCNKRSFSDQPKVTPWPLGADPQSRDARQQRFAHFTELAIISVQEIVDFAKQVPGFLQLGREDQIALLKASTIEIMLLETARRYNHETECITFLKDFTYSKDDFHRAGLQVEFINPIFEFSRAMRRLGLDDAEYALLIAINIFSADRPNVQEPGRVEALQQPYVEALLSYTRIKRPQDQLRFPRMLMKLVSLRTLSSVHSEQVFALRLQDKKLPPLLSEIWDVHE

[3] = Luminescence-based cell-based high throughput dose response assay to identify activators of the DAF-12 from the parasite S. stercoralis (ssDAF-12).; format: functional
[4] = biological target: Peroxisome proliferator-activated receptor gamma/Nuclear receptor coactivator 1 (Homo sapiens, UniProt P37231); format: functional;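 also: agonist potency as compounds enhance coactivator SRC-1 recruitment to PPARgamma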
Chain of Peroxisome proliferator-activated receptor gamma/Nuclear receptor coactivator 1 (P37231 whole entry): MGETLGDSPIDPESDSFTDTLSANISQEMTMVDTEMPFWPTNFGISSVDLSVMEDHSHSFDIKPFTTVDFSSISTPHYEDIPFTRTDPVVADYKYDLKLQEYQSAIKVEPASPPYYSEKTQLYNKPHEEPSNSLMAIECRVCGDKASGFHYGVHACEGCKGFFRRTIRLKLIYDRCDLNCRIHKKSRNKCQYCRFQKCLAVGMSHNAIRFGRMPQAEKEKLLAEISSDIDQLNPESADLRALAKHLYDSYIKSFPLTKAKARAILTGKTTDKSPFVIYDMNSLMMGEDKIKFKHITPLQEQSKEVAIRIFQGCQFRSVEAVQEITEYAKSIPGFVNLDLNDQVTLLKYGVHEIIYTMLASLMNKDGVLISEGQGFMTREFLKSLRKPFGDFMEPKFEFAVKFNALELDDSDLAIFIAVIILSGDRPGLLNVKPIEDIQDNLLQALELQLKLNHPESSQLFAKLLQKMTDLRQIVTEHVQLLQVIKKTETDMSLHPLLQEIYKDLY
Chain of Peroxisome proliferator-activated receptor gamma/Nuclear receptor coactivator 1 (Q15788 whole entry, further chain): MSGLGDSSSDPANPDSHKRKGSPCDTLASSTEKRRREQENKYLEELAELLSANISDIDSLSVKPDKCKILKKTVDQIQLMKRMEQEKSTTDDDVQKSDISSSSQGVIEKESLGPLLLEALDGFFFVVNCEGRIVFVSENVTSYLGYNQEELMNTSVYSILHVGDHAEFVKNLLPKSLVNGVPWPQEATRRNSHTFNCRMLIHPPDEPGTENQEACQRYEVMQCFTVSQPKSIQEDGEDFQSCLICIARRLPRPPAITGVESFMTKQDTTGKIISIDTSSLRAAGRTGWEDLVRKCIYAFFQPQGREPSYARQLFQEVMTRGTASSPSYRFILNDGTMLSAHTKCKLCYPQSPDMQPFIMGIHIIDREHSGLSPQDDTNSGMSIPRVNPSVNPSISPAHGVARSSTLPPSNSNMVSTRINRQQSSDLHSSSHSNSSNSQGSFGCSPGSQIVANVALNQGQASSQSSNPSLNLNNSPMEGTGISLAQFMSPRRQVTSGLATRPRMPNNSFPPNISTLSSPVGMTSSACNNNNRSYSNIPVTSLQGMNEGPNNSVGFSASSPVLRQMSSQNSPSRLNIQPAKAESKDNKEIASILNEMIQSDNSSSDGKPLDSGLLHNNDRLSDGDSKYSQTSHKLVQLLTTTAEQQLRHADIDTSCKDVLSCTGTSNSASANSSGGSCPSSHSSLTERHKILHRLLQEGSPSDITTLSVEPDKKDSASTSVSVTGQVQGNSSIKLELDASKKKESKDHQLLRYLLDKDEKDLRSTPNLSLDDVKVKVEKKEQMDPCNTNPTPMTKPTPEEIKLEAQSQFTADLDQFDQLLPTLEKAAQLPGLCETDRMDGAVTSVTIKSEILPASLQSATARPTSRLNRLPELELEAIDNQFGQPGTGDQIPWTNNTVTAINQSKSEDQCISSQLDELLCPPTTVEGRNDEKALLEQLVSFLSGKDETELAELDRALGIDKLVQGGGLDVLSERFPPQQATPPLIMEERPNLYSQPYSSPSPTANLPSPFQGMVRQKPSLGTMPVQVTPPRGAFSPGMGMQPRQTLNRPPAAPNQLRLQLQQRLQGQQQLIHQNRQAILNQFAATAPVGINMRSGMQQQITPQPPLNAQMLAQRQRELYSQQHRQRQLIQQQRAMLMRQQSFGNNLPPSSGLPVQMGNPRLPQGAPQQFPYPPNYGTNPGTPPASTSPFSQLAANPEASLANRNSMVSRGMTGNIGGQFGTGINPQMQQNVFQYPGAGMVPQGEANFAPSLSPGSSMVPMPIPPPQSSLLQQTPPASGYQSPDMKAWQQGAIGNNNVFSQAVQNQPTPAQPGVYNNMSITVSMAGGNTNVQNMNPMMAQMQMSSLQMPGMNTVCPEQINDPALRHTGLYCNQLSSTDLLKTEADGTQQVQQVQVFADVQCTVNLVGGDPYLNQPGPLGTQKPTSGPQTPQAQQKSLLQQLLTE

[5] = biological target: Peroxisome proliferator-activated receptor gamma/Nuclear receptor coactivator 2 (Homo sapiens, UniProt P37231); format: functional;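 also: agonist potency for raising coactivator recruitment to the receptor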
Chain of Peroxisome proliferator-activated receptor gamma/Nuclear receptor coactivator 2 (P37231 whole entry): as the sequence (P37231 whole entry) above
Chain of Peroxisome proliferator-activated receptor gamma/Nuclear receptor coactivator 2 (Q15596 whole entry, further chain): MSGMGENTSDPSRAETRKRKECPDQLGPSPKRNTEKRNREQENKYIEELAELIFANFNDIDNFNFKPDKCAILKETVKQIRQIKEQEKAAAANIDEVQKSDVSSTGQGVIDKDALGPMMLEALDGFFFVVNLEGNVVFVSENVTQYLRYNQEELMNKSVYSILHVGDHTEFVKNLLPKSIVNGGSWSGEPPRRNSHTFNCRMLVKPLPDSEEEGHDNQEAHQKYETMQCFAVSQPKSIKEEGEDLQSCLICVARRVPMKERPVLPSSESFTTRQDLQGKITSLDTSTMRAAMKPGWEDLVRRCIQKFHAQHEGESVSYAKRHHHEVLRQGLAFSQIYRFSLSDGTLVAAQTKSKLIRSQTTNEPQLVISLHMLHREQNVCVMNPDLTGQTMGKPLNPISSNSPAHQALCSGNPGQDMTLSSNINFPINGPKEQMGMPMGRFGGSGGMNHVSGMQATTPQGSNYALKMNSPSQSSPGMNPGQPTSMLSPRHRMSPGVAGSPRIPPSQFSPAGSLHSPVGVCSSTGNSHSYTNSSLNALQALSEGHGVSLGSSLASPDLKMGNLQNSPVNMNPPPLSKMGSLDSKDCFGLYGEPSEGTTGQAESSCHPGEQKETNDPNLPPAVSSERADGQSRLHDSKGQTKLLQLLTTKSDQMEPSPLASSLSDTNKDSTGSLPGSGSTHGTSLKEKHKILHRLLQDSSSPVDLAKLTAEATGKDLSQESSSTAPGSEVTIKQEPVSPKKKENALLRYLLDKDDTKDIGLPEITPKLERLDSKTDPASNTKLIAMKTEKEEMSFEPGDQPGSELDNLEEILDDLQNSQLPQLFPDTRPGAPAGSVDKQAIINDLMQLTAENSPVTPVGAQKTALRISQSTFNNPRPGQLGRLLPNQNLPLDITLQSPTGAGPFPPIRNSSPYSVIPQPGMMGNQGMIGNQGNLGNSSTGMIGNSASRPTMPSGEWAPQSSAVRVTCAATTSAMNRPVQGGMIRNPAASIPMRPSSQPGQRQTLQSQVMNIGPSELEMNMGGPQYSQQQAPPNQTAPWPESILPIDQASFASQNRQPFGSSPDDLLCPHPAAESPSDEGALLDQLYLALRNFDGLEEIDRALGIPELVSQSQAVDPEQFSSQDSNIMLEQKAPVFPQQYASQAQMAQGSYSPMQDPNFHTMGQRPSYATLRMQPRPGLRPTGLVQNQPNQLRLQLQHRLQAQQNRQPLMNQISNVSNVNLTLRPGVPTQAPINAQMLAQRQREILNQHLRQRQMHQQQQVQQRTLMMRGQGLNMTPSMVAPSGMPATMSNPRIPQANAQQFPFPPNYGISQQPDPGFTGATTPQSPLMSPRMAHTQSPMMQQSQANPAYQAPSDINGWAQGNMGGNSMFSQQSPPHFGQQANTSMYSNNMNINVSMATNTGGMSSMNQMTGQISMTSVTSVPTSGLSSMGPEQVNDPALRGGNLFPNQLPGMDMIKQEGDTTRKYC

[6] = biological target: Peroxisome proliferator-activated receptor gamma/Nuclear receptor corepressor 2 (Homo sapiens, UniProt P37231+Q9Y618); experiment: Counterscreen for NR2E3 inverse agonists: TR-FRET-based biochemical high throughput dose response assay to identify inverse agonists of the interaction between peroxisome proliferator-activated receptor gamma (PPARg) and nuclear receptor co-repressor 2 (NCOR2).; format: functional
[7] = biological target: Photoreceptor-specific nuclear receptor (Homo sapiens, UniProt Q9Y5X4); experiment: NR2E3 inverse agonists, dose response, biochemical, TR-FRET (AID 463256); format: functional
[8] = biological target: Peroxisome proliferator-activated receptor gamma/Nuclear receptor coactivator 3 (Homo sapiens, UniProt P37231); format: functional;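 also: agonist potency for raising coactivator recruitment to the receptor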
[9] = M. tuberculosis growth inhibition, HTS (AID 449762); format: functional
Caspase-7 = Caspase-7 (Homo sapiens, UniProt P55210); experiment: human caspase-7 inhibitors, dose response, selectivity assay for caspase-6 inhibitor project, biochemical, DEVD-R110 fluorescence, cherry-pick (AID 743295)
Protein skinhead-1 = biological target: T2, Protein skinhead-1 (Caenorhabditis elegans, UniProt P34707); format: functional
T2 sequence (P34707 whole entry): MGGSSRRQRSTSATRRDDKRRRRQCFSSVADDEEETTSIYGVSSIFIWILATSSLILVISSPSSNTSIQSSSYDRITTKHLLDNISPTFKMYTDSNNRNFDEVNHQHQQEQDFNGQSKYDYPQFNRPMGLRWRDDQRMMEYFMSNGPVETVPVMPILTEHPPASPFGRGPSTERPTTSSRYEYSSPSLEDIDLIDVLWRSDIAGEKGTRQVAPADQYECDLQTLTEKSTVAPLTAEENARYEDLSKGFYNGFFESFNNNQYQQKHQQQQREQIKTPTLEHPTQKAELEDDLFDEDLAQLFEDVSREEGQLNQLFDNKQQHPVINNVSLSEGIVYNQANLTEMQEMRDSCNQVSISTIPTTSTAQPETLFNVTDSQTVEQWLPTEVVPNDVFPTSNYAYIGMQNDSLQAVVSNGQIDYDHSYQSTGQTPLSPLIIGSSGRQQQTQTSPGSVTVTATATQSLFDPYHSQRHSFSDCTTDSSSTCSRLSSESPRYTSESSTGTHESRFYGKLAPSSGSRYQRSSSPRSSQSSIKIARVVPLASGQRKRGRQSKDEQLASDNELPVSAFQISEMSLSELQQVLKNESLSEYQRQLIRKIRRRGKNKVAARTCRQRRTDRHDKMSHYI

Caspase-6 = Caspase-6 (Homo sapiens, UniProt P55212); experiment: human caspase-6 inhibitors, dose response, biochemical, VEID-R110 fluorescence, cherry-pick (AID 720632)
Caspase-9 = Caspase-9 (Homo sapiens, UniProt P55211); experiment: caspase-9 enzyme inhibition, dose response, selectivity assay for caspase-6 inhibitor project, biochemical, fluorescence, plate reader, cherry-picked samples (AID 743293)
[10] = biological target: Tyrosyl-DNA phosphodiesterase 2 (Homo sapiens, UniProt O95551); experiment: human TDP2 enzyme inhibitors, dose response, biochemical, epi absorbance, IC50 (AID 743297)
[11] = biological target: T3, Polyadenylate-binding protein 1 (Homo sapiens, UniProt P11940); experiment: PABP1 MLLE–PAM2 interaction inhibitors, dose response, miRNA deadenylation inhibitor project, biochemical, fluorescence polarization, Cy5-PAM2 peptide, secondary (AID 602260); format: functional; conditions: read-out: IC50_Mean
T3 sequence (P11940 whole entry): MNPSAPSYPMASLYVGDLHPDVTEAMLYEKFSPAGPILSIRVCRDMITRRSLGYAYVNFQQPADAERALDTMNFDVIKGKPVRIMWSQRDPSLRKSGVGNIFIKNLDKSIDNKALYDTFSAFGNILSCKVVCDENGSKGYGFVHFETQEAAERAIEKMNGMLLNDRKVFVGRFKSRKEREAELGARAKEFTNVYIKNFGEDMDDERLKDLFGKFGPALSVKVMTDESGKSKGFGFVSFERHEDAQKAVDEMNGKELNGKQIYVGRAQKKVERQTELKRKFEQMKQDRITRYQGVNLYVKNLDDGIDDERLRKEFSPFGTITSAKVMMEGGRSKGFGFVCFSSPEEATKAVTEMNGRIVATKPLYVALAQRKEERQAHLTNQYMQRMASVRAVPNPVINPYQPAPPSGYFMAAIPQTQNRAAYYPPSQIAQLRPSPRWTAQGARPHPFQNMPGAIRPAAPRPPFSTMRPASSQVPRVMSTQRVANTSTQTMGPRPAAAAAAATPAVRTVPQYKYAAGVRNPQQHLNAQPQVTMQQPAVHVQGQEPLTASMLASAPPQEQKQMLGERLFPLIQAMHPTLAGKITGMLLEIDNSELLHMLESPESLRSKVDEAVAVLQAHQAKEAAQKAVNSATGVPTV

Caspase-8 = Caspase-8 (Homo sapiens, UniProt Q14790); experiment: caspase-8 inhibition counter-screen, dose response, selectivity assay for caspase-6 inhibitor project, biochemical, Z-IETD-R110 fluorescence, cherry-picked samples (AID 743294)
[12] = biological target: T3, Polyadenylate-binding protein 1; experiment: PABP1 MLLE–PAM2 binding inhibitor potency, dose response, biochemical, fluorescence polarization, FITC-PAM2 peptide (AID 602259); format: functional; conditions: read-out: IC50_Mean
Caspase-3 = biological target: T4, Caspase-3 (Homo sapiens, UniProt P42574); experiment: caspase-3 enzyme inhibitors, selectivity check, dose response, selectivity assay for caspase-6 allosteric inhibitor project, biochemical, fluorescence, cherry-picked samples (AID 743291)
T4 sequence (P42574 whole entry): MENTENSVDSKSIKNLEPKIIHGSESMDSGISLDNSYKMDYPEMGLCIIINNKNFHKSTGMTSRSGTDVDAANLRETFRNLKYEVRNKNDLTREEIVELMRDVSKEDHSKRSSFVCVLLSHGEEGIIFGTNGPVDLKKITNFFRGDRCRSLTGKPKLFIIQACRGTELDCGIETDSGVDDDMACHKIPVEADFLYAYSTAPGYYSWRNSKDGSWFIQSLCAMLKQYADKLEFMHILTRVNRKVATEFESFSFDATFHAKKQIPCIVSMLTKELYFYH

[13] = biological target: T5, Sphingosine 1-phosphate receptor 4 (Homo sapiens, UniProt O95977); experiment: Late stage fluorescence dose response cell-based screening assay for antagonists of the Sphingosine 1-Phosphate Receptor 4 (S1P4). [Related pubchem assays: 1524 (Confirmation screen (S1P4 antagonists).), 1510 (Primary screen (S1P4 antagonists).), 1853 (Summary AID (S1P4 antagonists).), 1692 (Dose response screen (S1P4 antagonists).)]; format: functional
T5 sequence (O95977 whole entry): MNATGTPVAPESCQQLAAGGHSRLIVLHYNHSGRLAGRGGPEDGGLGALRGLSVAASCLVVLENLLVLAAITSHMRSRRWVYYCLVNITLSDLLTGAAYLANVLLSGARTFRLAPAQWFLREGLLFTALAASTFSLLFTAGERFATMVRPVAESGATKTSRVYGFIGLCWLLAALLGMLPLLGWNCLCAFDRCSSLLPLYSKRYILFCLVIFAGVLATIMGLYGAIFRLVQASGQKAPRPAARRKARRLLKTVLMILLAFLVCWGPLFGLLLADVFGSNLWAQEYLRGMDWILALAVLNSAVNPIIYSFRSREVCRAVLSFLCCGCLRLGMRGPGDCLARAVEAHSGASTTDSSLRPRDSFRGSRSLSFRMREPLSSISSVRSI

[14] = biological target: Sphingosine 1-phosphate receptor 5 (Homo sapiens, UniProt Q9H228); experiment: Late stage counterscreen assay for S1P4 antagonists: Fluorescence dose response cell-based screening assay for antagonists of the Sphingosine 1-Phosphate Receptor 5 (S1P5). [Related pubchem assays (depositor defined):AID1510, AID1524, AID1692, AID1853, AID2332, AID489009, AID489017]; format: functional
[15] = biological target: T5, Sphingosine 1-phosphate receptor 4; experiment: Fluorescence dose response cell-based high throughput screening assay for antagonists of the Sphingosine 1-Phosphate Receptor 4 (S1P4). [Related pubchem assays: 1524 (Confirmation in triplicates.), 1510 (Primary screen.)]; format: functional
[16] = biological target: Sphingosine 1-phosphate receptor 3 (Homo sapiens, UniProt Q99500); experiment: Late stage counterscreen assay for S1P4 antagonists: Fluorescence dose response cell-based screening assay for antagonists of the Sphingosine 1-Phosphate Receptor 3 (S1P3). [Related pubchem assays (depositor defined):AID1510, AID1524, AID1692, AID1853, AID2332, AID489009, AID489017]; format: functional
[17] = biological target: T6, Sphingosine 1-phosphate receptor 1 (Homo sapiens, UniProt P21453); format: functional
T6 sequence (P21453 whole entry): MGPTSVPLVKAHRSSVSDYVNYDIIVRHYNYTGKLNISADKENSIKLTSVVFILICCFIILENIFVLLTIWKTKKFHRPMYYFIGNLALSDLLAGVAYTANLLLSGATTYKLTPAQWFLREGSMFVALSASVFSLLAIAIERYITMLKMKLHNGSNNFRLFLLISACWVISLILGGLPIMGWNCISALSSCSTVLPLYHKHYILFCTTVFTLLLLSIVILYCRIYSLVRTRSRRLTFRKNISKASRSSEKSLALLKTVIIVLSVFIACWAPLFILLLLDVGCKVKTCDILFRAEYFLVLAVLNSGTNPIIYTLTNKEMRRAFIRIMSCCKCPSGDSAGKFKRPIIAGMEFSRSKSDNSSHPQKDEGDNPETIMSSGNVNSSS

[18] = biological target: Sphingosine 1-phosphate receptor 2 (Homo sapiens, UniProt O95136); experiment: Late stage counterscreen assay for S1P4 antagonists: Fluorescence dose response cell-based screening assay for antagonists of the Sphingosine 1-Phosphate Receptor 2 (S1P2). [Related pubchem assays (depositor defined):AID1510, AID1524, AID1692, AID1853, AID2332, AID489009, AID489017]; format: functional
[19] = biological target: T6, Sphingosine 1-phosphate receptor 1; experiment: Late stage counterscreen assay for S1P4 antagonists: Fluorescence dose response cell-based screening assay for antagonists of the Sphingosine 1-Phosphate Receptor 1 (S1P1). [Related pubchem assays (depositor defined):AID1510, AID1524, AID1692, AID1853, AID2332, AID489009, AID489017]; format: functional

Cn1c(NC(=O)c2ccccc2)nc2c(F)cccc21
AbsAC90 [1]: 160.65 µM

O=C(Nc1cccc(O)c1)c1c(O)nc2ccccc2c1O
EC50 [2]: > 67.5 µM (inactive)
IC50 [3]: > 67.5 µM (inactive)

Cc1cccc(NC(=O)c2sc3nc(-c4ccc(F)cc4)cn3c2C)n1
EC50 [4]: 16.8 µM (not active)
EC50 [5]: 12.3 µM (not active)
IC50 [6]: 1.18 µM (active)
IC50 [7]: 1.17 µM (active)
EC50 [8]: 22.5 µM (not active)

CC(C)c1ccc2[nH]c(O)c(N=NC(=O)c3ccc(CSc4nncn4C)cc3)c2c1
IC50 [9]: > 100 µM (active)

Cn1c(=O)c2c(-c3ccccc3)n(-c3ccc(N)cc3)cc2n(C)c1=O
AC50 (Caspase-7): 8.62 µM (active)
IC50 (Protein skinhead-1): 73.6 µM (inactive)
AC50 (Caspase-6): 1.07 µM (active)
AC50 (Caspase-9): 69.8 µM (active)
IC50 [10]: > 128 µM (inactive)
IC50 [11]: > 66 µM (inactive)
AC50 (Caspase-8): > 70 µM (inactive)
IC50 [12]: 38.4 µM (inactive)
AC50 (Caspase-3): 19.2 µM (active)

Cc1cc(NC(=O)/C=C/c2ccccc2)c(C(C)C)cc1O
IC50 [13]: 0.338 µM (active)
IC50 [14]: > 25 µM (inactive)
IC50 [15]: 0.852 µM (active)
IC50 [16]: > 25 µM (inactive)
IC50 [17]: > 49.8 µM (not active)
IC50 [18]: > 25 µM (inactive)
IC50 [19]: > 25 µM (inactive)
